Reference: patent US20120231994A1, “ANTAGONISM OF HUMAN FORMYL PEPTIDE RECEPTOR FOR TREATMENT OF DISEASE” (NIKAN PHARMACEUTICALS, LLC, priority 2009, published 2012)

Assays:
Sprague-Dawley Rats = assay: Multiple Oral Gavage Toxicity Study of Cyclosporin H in Sprague-Dawley Rats with Toxicokinetics, hematology; assay type: in vivo; conditions: animals to which CsH had been administered (see Table 1)
[1] = test system: calcineurin mediated signaling; conditions: cited from earlier work
hFPR = biological target: T1, hFPR (Homo sapiens, UniProt P21462); assay: radionuclide binding competition assay using fMLF peptide as internal standard
T1 sequence (P21462 1-350): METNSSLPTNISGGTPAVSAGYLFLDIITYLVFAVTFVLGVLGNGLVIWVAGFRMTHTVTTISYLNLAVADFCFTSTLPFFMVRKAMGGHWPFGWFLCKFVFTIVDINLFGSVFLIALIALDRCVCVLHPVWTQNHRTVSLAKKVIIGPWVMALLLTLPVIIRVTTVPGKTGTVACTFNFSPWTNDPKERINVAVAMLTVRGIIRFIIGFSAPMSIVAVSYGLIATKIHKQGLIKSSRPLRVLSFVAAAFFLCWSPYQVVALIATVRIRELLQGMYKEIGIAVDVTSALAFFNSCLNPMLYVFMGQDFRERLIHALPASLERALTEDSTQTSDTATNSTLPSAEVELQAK
Description: Provided herein is the use of formyl peptide receptor antagonists in the therapy of diseases or disorders involving inappropriate, exaggerated, or prolonged neutrophil response (i.e. recruitment and/or activation). […] Thus the cyclosporins of this invention include dihydroCsH, as well as compounds of Formula I that maintain FPR inhibitory activity.

SMILES: C/C=C/C[C@@H](C)[C@@H](O)[C@H]1C(=O)N[C@@H](CC)C(=O)N(C)CC(=O)N(C)[C@@H](CC(C)C)C(=O)N[C@@H](C(C)C)C(=O)N(C)[C@@H](CC(C)C)C(=O)N[C@@H](C)C(=O)N[C@H](C)C(=O)N(C)[C@@H](CC(C)C)C(=O)N(C)[C@@H](CC(C)C)C(=O)N(C)[C@H](C(C)C)C(=O)N1C [CsH, Cyclosporine H]
- circulating eosinophils (Sprague-Dawley Rats): significant decrease
- effect on calcineurin mediated signaling [1]: no effect

SMILES: CCCC[C@@H](C)[C@@H](O)[C@H]1C(=O)N[C@@H](CC)C(=O)N(C)CC(=O)N(C)[C@@H](CC(C)C)C(=O)N[C@@H](C(C)C)C(=O)N(C)[C@@H](CC(C)C)C(=O)N[C@@H](C)C(=O)N[C@H](C)C(=O)N(C)[C@@H](CC(C)C)C(=O)N(C)[C@@H](CC(C)C)C(=O)N(C)[C@H](C(C)C)C(=O)N1C [dihydroCsH, Dihydrocyclosporin H]
- IC50 (hFPR): 7.99 nM
